Test results: patent US9266830B2, “Pesticidal arylpyrrolidines” (Bayer Intellectual Property GmbH, priority 2007, dated 2016)

The compounds below were run on Amblyomma hebraeum (assay: Amblyomma hebraeum test (AMBYHE), nymph immersion). Details: 0.8 ppm, comparison with WO2008/128711.
Type: in vivo
Description: (§1) Solvent: dimethyl sulfoxide
To produce a suitable preparation of active compound, 10 mg of active compound are dissolved in 0.5 ml solvent, and the concentrate is diluted with water to the desired concentration. Nymphs of the tick Amblyomma hebraeum are placed in perforated plastic beakers and immersed in aqueous compound solution for one minute. Ticks are transferred to a filter paper in a Petri dish and incubated in a climate chamber for 42 days.
After 42 days mortality in % is determined 100% means that all the ticks have been killed; 0% means that none of the ticks have been killed.

| SMILES | Activity at 0.8 ppm [%] |
| --- | --- |
| CCC(=O)NCc1ccc(N2CCC(c3cc(Cl)cc(Cl)c3)(C(F)(F)F)C2)cc1Br (centres unmarked) [3-5 according to WO2008/128711, reference compound] | 10 |

Same assay, conditions: 4 ppm, comparison with WO2008/128711

| SMILES | Activity at 4 ppm [%] |
| --- | --- |
| CCC(=O)NCc1ccc(N2CCC(c3cc(Cl)cc(Cl)c3)(C(F)(F)F)C2)cc1Br (centres unmarked) [3-5 according to WO2008/128711, reference compound] | 70 |

Each compound was assayed on Boophilus microplus (assay: Boophilus microplus test (injection)). Details: application rate 20 μg/animal, adult engorged females, after 7 days.
Type: in vivo
Description: as §1
To produce a suitable preparation of active compound, 10 mg of active compound are dissolved in 0.5 ml solvent, and the concentrate is diluted with solvent to the desired concentration. Five adult engorged female ticks (Boophilus microplus) are injected with compound solution into the abdomen. Ticks are transferred into replica plates and incubated in a climate chamber for a period of time. Egg deposition of fertile eggs is monitored. After 7 days mortality in % is determined 100% means that all eggs are infertile; 0% means that all eggs are fertile.

| SMILES | activity (100% means that all eggs are infertile) [%] |
| --- | --- |
| O=C(NCc1ccc(N2CCC(c3cc(Cl)cc(Cl)c3)(C(F)(F)F)C2)cc1C(F)(F)F)NC1CC1 (centres unmarked) [1-224] | 100 |
| CC(C)C(=O)NCc1ccc(N2CCC(c3cc(Cl)cc(Cl)c3)(C(F)(F)F)C2)cc1C(F)(F)F (centres unmarked) [1-145] | 100 |
| CC(C)(C)OC(=O)NCc1ccc(N2CCC(c3cc(C(F)(F)F)cc(C(F)(F)F)c3)(C(F)(F)F)C2)cc1C(F)(F)F (centres unmarked) [1-300] | 100 |
| C=CCSCC(=O)NCc1ccc(N2CCC(c3cc(Cl)cc(Cl)c3)(C(F)(F)F)C2)cc1C(F)(F)F (centres unmarked) [1-503] | 100 |
| O=C(NCc1ccc(N2CCC(c3cc(Cl)cc(Cl)c3)(C(F)(F)F)C2)cc1Cl)C(F)F (centres unmarked) [1-21] | 100 |
| O=C(CC(F)(F)F)NCc1ccc(N2CCC(c3cc(Cl)c(Cl)c(Cl)c3)(C(F)(F)F)C2)cc1C(F)(F)F (centres unmarked) [1-327] | 100 |
| CCC(=O)NCc1ccc(N2CCC(c3cc(C(F)(F)F)cc(C(F)(F)F)c3)(C(F)(F)F)C2)cc1Br (centres unmarked) [1-312] | 100 |
| O=C(NCc1ccccn1)c1cnc(N2CCC(c3cc(C(F)(F)F)cc(C(F)(F)F)c3)(C(F)(F)F)C2)nc1C(F)(F)F (centres unmarked) [2-35] | 100 |
| CNC(=O)N(C)Cc1ccc(N2CCC(c3cc(Cl)cc(Cl)c3)(C(F)(F)F)C2)cc1C(F)(F)F (centres unmarked) [1-258] | 100 |
| CCC(=O)NCc1ccc(N2CCC(c3cc(Cl)c(Cl)c(Cl)c3)(C(F)(F)F)C2)cc1Br (centres unmarked) [1-345] | 100 |
| O=C(NCc1ccc(N2CCC(c3cc(Cl)cc(Cl)c3)(C(F)(F)F)C2)cc1Cl)C1CC1(F)F (centres unmarked) [1-25] | 100 |
| CCCNC(=O)NCc1ccc(N2CCC(c3cc(Cl)cc(Cl)c3)(C(F)(F)F)C2)cc1C(F)(F)F (centres unmarked) [1-222] | 100 |
| CC(C)(C)OC(=O)NC1CCc2cc(N3CCC(c4cc(Cl)c(Cl)c(Cl)c4)(C(F)(F)F)C3)ccc21 (centres unmarked) [6-802] | 100 |
| O=C(NCc1ccc(N2CCC(c3cc(Cl)cc(Cl)c3)(C(F)(F)F)C2)cc1C(F)(F)F)NC1CCC1 (centres unmarked) [1-227] | 100 |
| CC(NC(=O)NCc1ccc(N2CCC(c3cc(Cl)cc(Cl)c3)(C(F)(F)F)C2)cc1Cl)C(F)(F)F (centres unmarked) [1-442] | 100 |
| NCc1cnc(N2CCC(c3cc(C(F)(F)F)cc(C(F)(F)F)c3)(C(F)(F)F)C2)nc1C(F)(F)F (centres unmarked) [3-146] | 100 |
| CCOC(=O)NCc1ccc(N2CCC(c3cc(C(F)(F)F)cc(C(F)(F)F)c3)(C(F)(F)F)C2)cc1C(F)(F)F (centres unmarked) [1-299] | 100 |
| CS(=O)(=O)CC(=O)NCc1ccc(N2CCC(c3cc(Cl)c(Cl)c(Cl)c3)(C(F)(F)F)C2)cc1C(F)(F)F (centres unmarked) [1-730] | 100 |
| CCCNC(=O)NCc1ccc(N2CCC(c3cc(C(F)(F)F)cc(C(F)(F)F)c3)(C(F)(F)F)C2)cc1C(F)(F)F (centres unmarked) [1-303] | 100 |

| SMILES | activity (100% means that all eggs are infertile) [%] |
| --- | --- |
| CCNC(=O)N(C)Cc1ccc(N2CCC(c3cc(Cl)cc(Cl)c3)(C(F)(F)F)C2)cc1Cl (centres unmarked) [1-113] | 100 |
| CC(C)(C)OC(=O)NCc1ccc(N2CCC(c3cc(Cl)cc(Cl)c3)(C(F)(F)F)C2)cc1C(F)(F)F (centres unmarked) [1-270] | 100 |
| CC=CC(=O)NCc1ccc(N2CCC(c3cc(Cl)cc(Cl)c3)(C(F)(F)F)C2)cc1Cl (centres unmarked) [1-30] | 100 |
| CN(Cc1ccc(N2CCC(c3cc(Cl)cc(Cl)c3)(C(F)(F)F)C2)cc1C(F)(F)F)C(=O)NC1CC1 (centres unmarked) [1-260] | 100 |
| O=C(NCc1cnc(N2CCC(c3cc(C(F)(F)F)cc(C(F)(F)F)c3)(C(F)(F)F)C2)nc1C(F)(F)F)C1CC1 (centres unmarked) [3-149] | 100 |
| O=C(NCc1ccc(N2CCC(c3cc(Cl)c(Cl)c(Cl)c3)(C(F)(F)F)C2)cc1Br)C1CC1 (centres unmarked) [1-346] | 100 |
| FC(F)(F)C1(c2cc(Cl)cc(Cl)c2)CCN(c2ccc(CNC(=S)NC3CC3)c(Cl)c2)C1 (centres unmarked) [1-468] | 100 |
| CSCC(=O)NCc1ccc(N2CCC(c3cc(Cl)cc(Cl)c3)(C(F)(F)F)C2)cc1C(F)(F)F (centres unmarked) [1-186] | 100 |
| CC[S+]([O-])CC(=O)NCc1ccc(N2CCC(c3cc(Cl)cc(Cl)c3)(C(F)(F)F)C2)cc1C(F)(F)F (centres unmarked) [1-500] | 100 |
| CC(=O)NCc1cnc(N2CCC(c3cc(Cl)c(Cl)c(Cl)c3)(C(F)(F)F)C2)nc1C(F)(F)F (centres unmarked) [3-141] | 100 |
| C=CC(=O)NCc1ccc(N2CCC(c3cc(Cl)cc(Cl)c3)(C(F)(F)F)C2)cc1C(F)(F)F (centres unmarked) [1-173] | 100 |
| NCc1ccc(N2CCC(c3cc(Cl)cc(Cl)c3)(C(F)(F)F)C2)cc1C(F)(F)F (centres unmarked) [1-141] | 100 |
| CCNC(=O)NCc1ccc(N2CCC(c3cc(Cl)c(Cl)c(Cl)c3)(C(F)(F)F)C2)cc1Cl (centres unmarked) [1-341] | 100 |
| CS(=O)(=O)CC(=O)NCc1ccc(N2CCC(c3cc(C(F)(F)F)cc(C(F)(F)F)c3)(C(F)(F)F)C2)cc1C(F)(F)F (centres unmarked) [1-968] | 100 |
| N#Cc1ccc(N2CCC(c3cc(Cl)c(Cl)c(Cl)c3)(C(F)(F)F)C2)cc1Cl (centres unmarked) [7-13] | 100 |
| N#CCC(=O)NCc1ccc(N2CCC(c3cc(Cl)cc(Cl)c3)(C(F)(F)F)C2)cc1C(F)(F)F (centres unmarked) [1-183] | 100 |
| CSCC(=O)NCc1ccc(N2CCC(c3cc(Cl)c(Cl)c(Cl)c3)(C(F)(F)F)C2)cc1C(F)(F)F (centres unmarked) [1-728] | 100 |
| O=C(NCc1ccc(N2CCC(c3cc(Cl)cc(C(F)(F)F)c3)(C(F)(F)F)C2)cc1C(F)(F)F)C1CC1 (centres unmarked) [1-357] | 100 |
| CC(NC(=O)NCc1ccc(N2CCC(c3cc(Cl)cc(Cl)c3)(C(F)(F)F)C2)cc1Cl)c1nccs1 (centres unmarked) [1-446] | 100 |

| SMILES | activity (100% means that all eggs are infertile) [%] |
| --- | --- |
| C=CCSCC(=O)NCc1ccc(N2CCC(c3cc(Cl)c(Cl)c(Cl)c3)(C(F)(F)F)C2)cc1C(F)(F)F (centres unmarked) [1-732] | 100 |
| C=CC[S+]([O-])CC(=O)NCc1ccc(N2CCC(c3cc(C(F)(F)F)cc(C(F)(F)F)c3)(C(F)(F)F)C2)cc1C(F)(F)F (centres unmarked) [1-970] | 100 |
| O=C(NCc1ccccn1)c1sc(N2CCC(c3cc(C(F)(F)F)cc(C(F)(F)F)c3)(C(F)(F)F)C2)nc1C(F)(F)F (centres unmarked) [4-35] | 100 |
| CC(C)NC(=O)NCc1ccc(N2CCC(c3cc(C(F)(F)F)cc(C(F)(F)F)c3)(C(F)(F)F)C2)cc1C(F)(F)F (centres unmarked) [1-304] | 100 |
| C=CC[S+]([O-])CC(=O)NCc1ccc(N2CCC(c3cc(Cl)c(Cl)c(Cl)c3)(C(F)(F)F)C2)cc1C(F)(F)F (centres unmarked) [1-733] | 100 |
| CCNC(=O)NCc1cnc(N2CCC(c3cc(C(F)(F)F)cc(C(F)(F)F)c3)(C(F)(F)F)C2)nc1C(F)(F)F (centres unmarked) [3-151] | 100 |
| CSCC(=O)NCc1ccc(N2CCC(c3cc(C(F)(F)F)cc(C(F)(F)F)c3)(C(F)(F)F)C2)cc1C(F)(F)F (centres unmarked) [1-966] | 100 |
| O=C(CC(F)(F)F)NCc1cnc(N2CCC(c3cc(C(F)(F)F)cc(C(F)(F)F)c3)(C(F)(F)F)C2)nc1C(F)(F)F (centres unmarked) [3-150] | 100 |
| C=CCC(=O)NCc1ccc(N2CCC(c3cc(Cl)cc(Cl)c3)(C(F)(F)F)C2)cc1Cl (centres unmarked) [1-36] | 100 |
| O=C(NCc1ccc(N2CCC(c3cc(Cl)c(Cl)c(Cl)c3)(C(F)(F)F)C2)cc1Cl)C1CC1 (centres unmarked) [1-339] | 100 |
| CC(C)C(=O)NCc1ccc(N2CCC(c3cc(Cl)cc(Cl)c3)(C(F)(F)F)C2)cc1Cl (centres unmarked) [1-3] | 100 |
| O=C(NCc1ccc(N2CCC(c3cc(Cl)cc(Cl)c3)(C(F)(F)F)C2)cc1C(F)(F)F)NCC1CC1 (centres unmarked) [1-232] | 100 |
| CCNC(=O)NCc1cnc(N2CCC(c3cc(Cl)c(Cl)c(Cl)c3)(C(F)(F)F)C2)nc1C(F)(F)F (centres unmarked) [3-145] | 100 |
| COC(=O)NCc1ccc(N2CCC(c3cc(C(F)(F)F)cc(C(F)(F)F)c3)(C(F)(F)F)C2)cc1C(F)(F)F (centres unmarked) [1-298] | 100 |
| CCNC(=O)NCc1ccc(N2CCC(c3cc(Cl)c(Cl)c(Cl)c3)(C(F)(F)F)C2)cc1C(F)(F)F (centres unmarked) [1-330] | 100 |
| O=C(NCc1ccc(N2CCC(c3cc(C(F)(F)F)cc(C(F)(F)F)c3)(C(F)(F)F)C2)cc1Cl)C1CC1 (centres unmarked) [1-308] | 100 |
| O=C(NCc1ccc(N2CCC(c3cc(C(F)(F)F)cc(C(F)(F)F)c3)(C(F)(F)F)C2)cc1[N+](=O)[O-])C1CC1 (centres unmarked) [1-319] | 100 |
| C=CC[S+]([O-])CC(=O)NCc1ccc(N2CCC(c3cc(Cl)cc(Cl)c3)(C(F)(F)F)C2)cc1C(F)(F)F (centres unmarked) [1-504] | 100 |
| N#Cc1ccc(N2CCC(c3cc(Cl)c(Cl)c(Cl)c3)(C(F)(F)F)C2)cc1C(F)(F)F (centres unmarked) [7-12] | 100 |
